{"source": "patent US20220282217A1", "about": "“COMPOSITIONS AND METHODS FOR PREPARING T CELL COMPOSITIONS AND USES THEREOF” (priority 2019, published 2022)", "key": {"HLA-A02.01 [1]": {"target": "T1, HLA-A02.01 (Homo sapiens, UniProt P04439, D140Y/D185E/D98H/E176V/E277Q/G131W/G231S/I119V/I121R/I166T/I218V/N151K/N90K/P208A/P217A/Q86G/Q94H/R138H/R169H)", "T1 construct": "made in house; host or cells: E. coli", "assay": "Class I MHC peptide binding stability (pMHC-I dissociation, 125I-labeled light chain)"}, "Class I MHC": {"target": "Class I MHC", "assay": "Class I MHC peptide binding affinity, any other or unspecified HLA allele named in the row", "set-up": "species or system human", "conditions": "EGFR T790M peptides; HLA allele B08.02"}, "HLA-A24.02": {"test_system": "HLA-A24.02", "assay": "Class I MHC peptide binding stability (pMHC-I dissociation, 125I-labeled light chain)", "set-up": "species or system human"}, "HLA-A02.01 [2]": {"target": "HLA-A02.01 (Homo sapiens, UniProt P04439, D140Y/D185E/D98H/E176V/E277Q/G131W/G231S/I119V/I121R/I166T/I218V/L300P/L318F/N151K/N90K/P208A/P217A/Q86G/Q94H/R138H/R169H/T345S)", "assay": "Class I MHC peptide binding affinity (displacement of radiolabeled reference peptide)", "in_short": "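Displacement format in which varying amounts of peptide compete for 2 days with a radiolabeled reference ligand prebound to class I MHC, residual complex-associated label being measured after gel-filtration separation.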"}, "[3]": {"target": "293T cells transduced with GATA3 neoORF, expressing the HLA of interest (Homo sapiens, UniProt P04439)", "assay": "Presentation of GATA3 neoantigens: HLA-eluted peptides by targeted MS/MS (PRM) (Table 14)", "type": "cell-based", "conditions": "GATA3 neoORF transduced 293T cells expressing HLA-A*03:01 protein", "protocol": "(§1) To assess whether antigens could be processed and presented from the larger polypeptide context, peptides eluted from HLA molecules isolated from cells expressing the genes of interest were analyzed by tandem mass spectrometry (MS/MS).\n(§2) Between 50 and 700 million of the transduced cells expressing peptides encoded by the GATA3 neoORF sequence were cultured and peptides were eluted from HLA-peptide complexes using an acid wash. Eluted peptides were then analyzed by targeted MS/MS using PRM. Spectral comparison between peptides derived from GATA3 neoORF and corresponding synthetic peptides were performed to confirm each detection."}, "[4]": {"test_system": "293T cells transduced with GATA3 neoORF, expressing the HLA of interest", "assay": "Presentation of GATA3 neoantigens: HLA-eluted peptides by targeted MS/MS (PRM) (Table 14)", "type": "cell-based, human", "conditions": "GATA3 neoORF transduced 293T cells expressing HLA-A*11:01 protein", "protocol": "as §1, §2"}, "HLA-A03.01": {"target": "HLA-A03.01 (Homo sapiens, UniProt P04439)", "assay": "Class I MHC peptide binding affinity (displacement of radiolabeled reference peptide)", "conditions": "allele A03.01; read-out: Observed Affinity (IC50; (nM))"}, "CD8+ T cells": {"test_system": "CD8+ T cells", "assay": "Ex vivo induction of antigen-specific CD8 T cells (FLT3L-treated PBMCs), MHC tetramer/multimer readout", "type": "cell-based, human", "set-up": "key to Epitope prefixed with '*': positive CD8+ T cell response: The epitopes that are prefixed with ‘*’, were shown to induce positive CD8+ T cell response in either one or both the donors; key to Immunogenicity (#donors/2): positive CD8+ T cell response in either one or both the donors (marked as 1 or 2 in column 6 respectively); positive CD8+ T cell response in either one or both the donors (marked as 1 or 2 in column 6 respectively)", "conditions": "HLA-A02:01", "protocol": "Step 1: Plate 5 million PBMCs (or cells of interest) in each well of 24 well plate with FLT3L in 2 mL AIM V media Step 2: Peptide loading and maturation—in AIMV 1. Mix peptide pool of interest (except for no peptide condition) with PBMCs (or cells of interest) in respective wells.\n3. Mix Maturation cocktail (including TNF-α, IL-1β, PGE1, and IL-7) to each well after incubation. Step 3: Add human serum to each well at a final concentration of 10% by volume and mix. Step 4: Replace the media with fresh RPMI+10% HS media supplemented with IL7+IL15. Step 5: Replace the media with fresh 20/80 media supplemented with IL7+IL15 during the period of incubation every 1-6 days. Step 6: Plate 5 million PBMCs (or cells of interest) in each well of new 6-well plate with FLT3L in 2 ml AIM V media Step 7: Peptide loading and maturation for re-stimulation—(new plates) 1. Mix peptide pool of interest (except for no peptide condition) with PBMCs (or cells of interest) in respective wells\n1. […]\nMHC tetramers are purchased or manufactured on-site according to methods known by one of ordinary skill, and are used to measure peptide-specific T cell expansion in the immunogenicity assays. […] Cells are acquired on a LSR Fortessa (Becton Dickinson) instrument, and are analyzed by use of FlowJo software (Becton Dickinson). […]"}}, "note": "pKd: −log10 of the molar value. Where a SMILES comes first, the peptide text is derived from it."}
{"compound": "CC[C@H](C)[C@H](NC(=O)[C@H](CC(C)C)NC(=O)[C@@H](N)CCC(N)=O)C(=O)N[C@@H](CCSC)C(=O)N[C@@H](CCC(N)=O)C(=O)N[C@@H](CC(C)C)C(=O)N[C@@H](CCSC)C(=O)N1CCC[C@H]1C(=O)N[C@@H](Cc1ccccc1)C(=O)O", "values": [{"measurement": "Stability (half-life (hr.))", "setting": "HLA-A02.01 [1]; EGFR T790M peptides, HLA allele A02.01", "value": 20.44, "unit": "min"}, {"measurement": "Stability (T1/2 (h))", "setting": "HLA-A02.01 [1]; allele A02.01", "value": 0.3, "unit": "h"}, {"measurement": "pKd", "setting": "Class I MHC", "value": 5.25}, {"measurement": "Stability (half-life (hr.))", "setting": "HLA-A24.02; EGFR T790M peptides, HLA allele A24.02", "value": 22.12, "unit": "min"}, {"measurement": "Stability (T1/2 (h))", "setting": "HLA-A24.02; allele A24.02", "value": 0.4, "unit": "h"}, {"measurement": "pKd", "setting": "HLA-A02.01 [2]; EGFR T790M peptides, HLA allele A02.01, read-out: Affinity", "value": 6.71}, {"measurement": "IC50", "setting": "HLA-A02.01 [2]; allele A02.01, read-out: Observed Affinity (IC50, (nM))", "value": 227, "unit": "nM"}]}
{"compound": "CC[C@H](C)[C@H](NC(=O)[C@@H](N)CCCCN)C(=O)N[C@@H](CCSC)C(=O)N[C@@H](Cc1ccccc1)C(=O)N[C@@H](C)C(=O)N[C@H](C(=O)N[C@@H](CC(C)C)C(=O)N[C@@H](CCC(N)=O)C(=O)N[C@@H](CCCNC(=N)N)C(=O)O)[C@@H](C)O", "note": "(H-KIMFATLQR-OH; N-terminus and C-terminus assumed)", "values": [{"measurement": "detected by mass spectrometry (peptide eluted from HLA-peptide complexes)", "setting": "[3]", "value": "detected"}, {"measurement": "detected by mass spectrometry (peptide eluted from HLA-peptide complexes)", "setting": "[4]", "value": "detected"}, {"measurement": "IC50", "setting": "HLA-A03.01", "value": 2.5, "unit": "nM"}]}
{"compound": "VLDCCISLL", "values": [{"measurement": "Epitope prefixed with '*': positive CD8+ T cell response", "setting": "CD8+ T cells; in either one or both the donors", "value": "*VLDCCISLL"}, {"measurement": "Immunogenicity (#donors/2)", "setting": "CD8+ T cells; positive CD8+ T cell response, number of donors out of 2", "value": 1}]}
